Test results reported in patent publication US20260374815A1, “PIGMENT EPITHELIUM-DERIVED FACTOR PEPTIDES AND USE FOR TREATING RETINAL DEGENERATION” (priority 2022, published 2026).
Where no end group is shown, it is not given here.

Legend:
[1] = test system: photoreceptor function, rd10 mice; test: Electroretinography (ERG), rd10 mice; assay type: in vivo, mouse
Protocol: (§1) At end point, eyes were enucleated and cross section of retinas from the treated animals were obtained. […] Third, electroretinography was performed in untreated and eyes treated with the 17mer[H105A] peptide eyedrops. Following an intense brief flash of light from darkness, the negative-going a-wave is generated by rod photocurrents and the positive-going b-wave by depolarizing bipolar-cell currents in combination with bipolar cell-dependent K^+ currents affecting Müller cells. […] Scotopic b wave was also measured for both rd10 and rd10/SerpinF1 null mice (FIG. 10C). The data from these different assays corroborate the PSVue® data and illustrate the efficacy of eyedrops of the 17mer[H105A] peptide for protecting the photoreceptors against malformation, death, and misfunction in vivo.
At end point, eyes were enucleated and cross section of retinas from the treated animals were obtained. […] Electroretinography was also performed in untreated and eyes of rd10 mice treated with the […] eyedrops. […] The work was done with 3 animals, which may not give statistical significance.

[2] = test system: photoreceptor function, rd10/Serpinf1 null mice; test: Electroretinography (ERG), rd10/Serpinf1 null mice; assay type: in vivo, mouse; settings: P21, daily eyedrops P15-P20
Protocol: as §1

[3] = Penetration or bioavailability of labeled peptide in retina after eyedrop (fluorometry of retinal extract); assay type: in vivo, mouse (C57/B16J); settings: eyedrops; P21 mice; measured with the Alexa488-labeled peptide
Protocol: To detect labeled peptide in vitro, the labeled Alexa488-17-mer[H105A] peptide was diluted in HBSS at the indicated concentrations (X-axis). A total of 30 μl of each was added to a well in 96-well plate in triplicates. RIPA buffer was added to one dissected mouse retina at 80 μl/retina. The suspension was sonicated for 30 sec at 4 °C followed by centrifugation at 4 °C. 10 min at […] (Eppendorf centrifuge) to separate the soluble retinal extract from the particulate material. The labeled peptide was diluted in retinal extract. A total of 30 μl of each was added to a well in 96-well plate. HBSS (FIG. 18A) or retinal extract (FIG. 18B) were used as a control at zero and different concentrations of 17mer[H105A]-488 as indicated in the x-axis. Fluorescence was determined using a fluorometer [BMG LabTech POLARstar OPTIMA] using wavelength at [Excitation 485-P, Emission 520-P]. Plots were obtained using GraphPad and non-linear fit were analyzed.
At 1, 3, 6 and 24 hours after administration, retinas were dissected, their proteins were extracted with RIPA (80 μl/retina) and clarified by sonication and centrifugation. A total of 30 μl of extracts were used to determine the fluorescence of the peptide with a fluorometer (FIG. 19).

[4] = P25, eyedrops every other day P15-P24

## QRTESIIARALYYDLIS [17mer[H105A]]
[1]; P21, daily eyedrops P15-P20
  ERG amplitude of the a-wave: improvement
[1]; [4]
  ERG amplitude of the a-wave: improvement
  ERG amplitude of the b-wave: improvement
[1]; P25, eyedrops every other day, 3 animals
  statistical difference in b-wave between treated and untreated: no statistically significant difference
[2]
  ERG amplitude of the a-wave: improvement
[3]
  time after eyedrop at which the peptide reached the retina: 1 to 24 h
